Read-outs that look alike come from different tables or passages of the source.
Assays:
HL60 leukemia cells = experiment: MTT cell viability assay, HL60 leukemia; format: cell-based; settings: Homo sapiens, read-out: Inhibitory concentration IC50
Experimental: (§1) 518A2 (Department of Radiotherapy, Medical University of Vienna, Vienna, Austria) melanoma, KB-V1^Vbl (ACC-149) cervix carcinoma, MCF-7^Topo (ACC-115) breast carcinoma, HT29 (ACC-299) colon carcinoma were cultivated in Dulbecco’s Modified Eagle Medium (DMEM) supplemented with 10% fetal bovine serum and 1% antibiotic-antimycotic at 37 °C, 5% CO2, and 95% humidity. To keep MCF-7^Topo and KB-V1^Vbl cells resistant, the maximum-tolerated doses of topotecan or vinblastine were added to the cell culture medium 24 h after every passage. The human HL60 leukemia cells were obtained from the German National Resource Center for Biological Material (DSMZ), Braunschweig. Neuroectodermal stem cells NE-4C (ATCC No. CRL-2925), primary mouse astrocytes, rat glioma C6 (ATCC No. CCL-107) and human glioma U87 (ATCC No. HTB-14) were used.
(§2) Non-GBM cells (5 × 10^4 cells/mL, 100 µL/well) were grown in 96-well plates for 24 h. […] After the addition of 12.5 µL of a 0.5% MTT solution in PBS, the cells were incubated for 3 h at 37 °C so that the water-soluble MTT could be converted to formazan crystals. Then, the plates were centrifuged (300× g, 5 min, 4 °C), the medium withdrawn, and the formazan dissolved in 25 µL of DMSO containing 10% sodium dodecylsulfate (SDS) and 0.6% acetic acid for at least 2 h at 37 °C. In the case of the HL60 cells, after 2 h, the precipitate of formazan crystals was redissolved in a 10% solution of SDS in DMSO containing 0.6% acetic acid.

primary astrocytes = experiment: MTT cell viability assay, primary astrocytes; format: cell-based; settings: Mus musculus, Astrocyte, read-out: Inhibitory concentration IC50
Experimental: (§3) NE-4C cells derived from the anterior brain vesicles of p53-deficient 9-day-old mouse embryos were maintained in Minimum Essential Medium (MEM; Sigma Aldrich, Taufkirchen, Germany) supplemented with 5% fetal calf serum (FCS; Invitrogen-Gibco, Carlsbad, CA, USA), 4 mM glutamine (Sigma-Aldrich, Taufkirchen, Germany) and 40 ug/mL gentamycin (Chinoin, Budapest, Hungary). For maintenance, subconfluent cultures were regularly split by trypsinization (0.05 w/v% trypsin in PBS) into poly-L-lysine-coated Petri dishes. Primary astrocytes were isolated from whole brains of neonatal (P0-P3) mice, as described earlier. In brief, meninges were removed, and the tissue pieces were subjected to enzymatic dissociation, using 0.05% w/v trypsin and 0.05% w/v DNase for 10 min at room temperature. The cells were plated onto poly-L-lysine coated plastic surfaces and grown in MEM supplemented with 10% fetal calf serum, 4 mM glutamine and 40 ug/mL gentamycin. Primary neuronal cultures were prepared from embryonic (E15–E16) mouse (CD1) forebrains, as described earlier. In brief, cell suspensions were prepared by mechanical dissociation over a nylon mesh with a pore diameter of 40–42 μm. The cells were seeded at 10^5 cells/cm^2 density onto PLL-coated surfaces. The cultures were maintained in MEM supplemented with 5% FCS, 4 mM glutamine, 40 µg/mL gentamicin and 2.5 μg/mL amphotericin B (Sigma). In co-culture experiments, U87 glioma cells were seeded onto established neuronal cultures at DIV3 in a 25,000 cell/cm^2 density.
as §2

primary neurons = experiment: MTT cell viability assay, primary neurons; format: cell-based; settings: Mus musculus, Primary neuron, read-out: Inhibitory concentration IC50
Experimental: as §3, §2

518A2 melanoma cells = experiment: MTT cell viability assay, 518A2 melanoma; format: cell-based; settings: Homo sapiens, read-out: Inhibitory concentration IC50
Experimental: as §1, §2

MZ-54 glioblastoma cells = experiment: Annexin V/PI flow cytometry; format: cell-based, human; settings: MZ-54 cells
Experimental: U251 und Mz54 glioblastoma cells (6 × 10^5 cells/mL, 0.5 mL/well) were seeded in 24-well plates. The next day, the cells were treated with 1, 2 or vehicle (DMSO) for 48 h. Prior to the measurement, the cells were harvested and stained using Annexin-V-APC (BD Biosciences, Heidelberg, Germany) and propidium iodide (PI, 0.05 mg/mL, Sigma-Aldrich, Taufkirchen, Germany). Cells were analyzed with BD Accuri C6 flow-cytometer (BD Biosciences), and data processing was performed using BD Accuri C6 software (BD Biosciences).
Figure 7 (A–D). Annexin V/PI flow cytometry of MZ–54 cells upon treatment with 1 or 2, mean + SEM; Brown–Forsythe ANOVA test with Dunnett’s T3 multiple comparison test (compared with DMSO control); * < 0.05; ** < 0.01; *** < 0.001; **** < 0.0001.

[1] = test system: co-cultures of neuronal cells and U87 glioma cells; experiment: Co-culture of primary neurons and U87 glioma cells; format: cell-based, mouse / human; settings: 1 µM
Experimental: The selectivity of illudins 1 and 2 for U87 glioblastoma cells versus normal neuronal cells was evaluated by applying them to co-cultures of these cells serving as a surrogate brain tumor model. To this end, isolated murine primary neurons were grown on IBIDI dishes and after […] and the establishment of neuronal aggregates, the glioma U87 cells (~ 25,000 cells) were added to the neuronal culture. After 12 h, 1 and 2 were applied in 1 µM concentrations and the response of the different cells was monitored over a period between 15 and 48 h post incubation (Figure 8). In the control samples, the number of proliferating U87 cells increased with time and overgrew the diminishing number of differentiating neurons.
as §3
Figure 8 Co-culture of neuronal cells and U87 glioma cells in the absence or presence of 1 µM of 1 or 2. The neuronal aggregates are marked by arrowheads. Scale bar: 100 µm.

U87 glioma cells = experiment: MTT cell viability assay, U87 glioma; format: cell-based; settings: Homo sapiens, U-87 MG, read-out: Inhibitory concentration IC50
Experimental: as §1
[…] Afterward, 10 µL of a 5 mg/mL MTT solution in PBS was added to the cells for 3 h at 37 °C. Then, the spheres were centrifuged shortly to collect the cells on the bottom of the plate, and the medium was removed by careful pipetting for both adherently grown and floating sphere GBM cultures. Afterward, formazan was dissolved in a mixture (24:1 v:v) of isopropanol and 1 M HCl using 100 µL for adherent cells by shaking the plates for at least 20 min. The absorbance of formazan (λ = 570 nm), and background (λ = 630 nm) was measured with a microplate reader (Tecan Spark, Tecan Deutschland GmbH, Crailsheim, Germany).

[2] = test system: MCF-7^+Topo breast carcinoma cells; experiment: MTT cell viability assay, MCF-7+Topo breast carcinoma; format: cell-based; settings: Homo sapiens, MCF7/Topo, read-out: Inhibitory concentration IC50
Experimental: as §1, §2

SMILES: CC1=C(/C=C/C(C)=C/C=C/C(C)=C/C(=O)O[C@@H]2C3=C(C)C4(CC4)[C@@](C)(O)C(=O)C3=CC2(C)C)C(C)(C)CCC1 [Compound 2, illudin M retinoate]
- IC50 (HL60 leukemia cells; HL-60, HL60, 24 h exposure): 6800 ± 2800 nM
- IC50 (HL60 leukemia cells; HL-60, HL60, 48 h exposure): 4500 ± 1100 nM
- IC50 (primary astrocytes; 24 h exposure): 45000 ± 2000 nM
- IC50 (primary astrocytes; 48 h exposure): 33000 ± 4000 nM
- IC50 (primary neurons; 24 h exposure): 26000 ± 1000 nM
- IC50 (primary neurons; 48 h exposure): 14000 ± 2000 nM
- IC50 (518A2 melanoma cells; 518A2, 24 h exposure): 5000 ± 300 nM
- IC50 (518A2 melanoma cells; 518A2, 48 h exposure): 4000 ± 700 nM
- cell death (Annexin V/PI) (MZ-54 glioblastoma cells): dose- and time-dependent increase in cell death
- response of neurons and U87 cells in co-culture ([1]; 15 h after treatment): healthy and compact neuronal aggregates
- response of neurons and U87 cells in co-culture ([1]; 48 h after treatment): many neurons were still present
- IC50 (U87 glioma cells; U87, 24 h exposure): 37000 ± 3000 nM
- IC50 (U87 glioma cells; U87, 48 h exposure): 2700 ± 700 nM
- IC50 ([2]; 24 h exposure): 2500 ± 600 nM
- IC50 ([2]; 48 h exposure): 80 ± 10 nM

SMILES: CC1=C2C(=CC(C)(C)[C@@H]2O)C(=O)[C@](C)(O)C12CC2 [Compound 1, illudin M]
- IC50 (HL60 leukemia cells; HL-60, HL60, 24 h exposure): 7 ± 2 nM
- IC50 (HL60 leukemia cells; HL-60, HL60, 48 h exposure): 1 nM
- IC50 (primary astrocytes; 24 h exposure): 1500 ± 400 nM
- IC50 (primary astrocytes; 48 h exposure): 200 ± 30 nM
- IC50 (primary neurons; 24 h exposure): 600 ± 120 nM
- IC50 (primary neurons; 48 h exposure): 190 ± 40 nM
- IC50 (518A2 melanoma cells; 518A2, 24 h exposure): 40 ± 10 nM
- IC50 (518A2 melanoma cells; 518A2, 48 h exposure): 20 ± 10 nM
- cell death (Annexin V/PI) (MZ-54 glioblastoma cells): dose- and time-dependent increase in cell death
- response of neurons and U87 cells in co-culture ([1]; 15 h after treatment): considerable cellular fragmentation
- response of neurons and U87 cells in co-culture ([1]; 48 h after treatment): merely cell debris
- IC50 (U87 glioma cells; U87, 24 h exposure): 630 ± 40 nM
- IC50 (U87 glioma cells; U87, 48 h exposure): 130 ± 30 nM
- IC50 ([2]; 24 h exposure): 350 ± 130 nM
- IC50 ([2]; 48 h exposure): 50 ± 10 nM
